Test results as given in patent publication US20050124624A1, “4-(4-methylpiperazin-1-ylmethyl)-n-[4-methyl-3-(4-pyridin-3-yl)pyrimidin-2-yl-amino)phenyl]-benzamide for threating ang ii-mediated diseases” (priority 2002, published 2005).

What was measured:
mesenteric vessels = assay: Histomorphometry of mesenteric vessels (media wall:lumen ratio, trichrome ECM) in angiotensin II-infused rats; format: in vivo, Sprague Dawley rats
Description: (§1) Rats were randomized to receive minipumps filled vehicle (0.15 M NaCl, 1 mmol/l acetic acid) either with or without angiotensin II (58 ng/min), as previously described (Cao Z et col. Kidney Int 58:2437-2451, 2000).
Histochemistry and immunohistochemistry: Histological studies of vascular architecture were performed in a subset of animals (n=8/group). Animals in this subgroup were anesthetized with pentobarbital sodium (Nembutal, Bomac Laboratories, Asquith, Australia) and vessels were perfused at arterial pressure with 10% neutral buffered formalin via an intra-aortic cannula. Tissues were then prepared as previously described (Cooper M E et col.; Diabetes 43:1221-1228,1994). In brief, mesenteric vessels were placed in ice cold phosphate buffer where fat, connective tissue and veins were removed by blunt dissection. The resultant vessel preparation was then embedded in paraffin. Sections were then either histochemically or immunohistochemically stained. […]
Quantification of histopathology: The proportion of vessel wall occupied by the media was identified by immunolabelling for α-smooth muscle actinand the ratio of the wall:lumen quantified using of a video-imaging system (Video Pro 32, Leading Edge, Bedford Park, South Australia, Australia), connected to a light microscope (Zeiss, Oberkocken, Germany) with photographic attachment (Axiophot, Zeiss, Oberkocken, Germany). Using this device, the media (areas stained with the anti-actin antibody) and corresponding lumenal areas were determined in a median of 20 (range 10-35) vessels per animal and expressed as wall:lumen ratio, as previously described in other models of vascular hypertrophy (Kakinuma Yet col.; Kidney Int 42:46-55., 1992).
Quantification of ECM was performed on trichrome-stained sections by calculating the proportion of area occupied by ECM using computer-assisted image analysis as previously described (Lehr H A, et col. J Histochem Cytochem 45:1559-1565, 1997). […]

[1] = test system: Transforming growth factor-β1 (TGF-β1); assay: Quantitative real-time RT-PCR of mesenteric vessel TGF-β1 gene expression; format: in vivo, Sprague Dawley rats; details: mesenteric vessel mRNA, compared with untreated counterparts also subjected to angiotensin II-infusion
Description: as §1
(§2) RNA Extraction and cDNA synthesis Frozen mesenteric vascular tissue, stored at −80° C. was homogenized (Ultra-Turrax, Janke and Kunkel, Staufen, Germany) and total RNA was isolated by the acid guanidinium thiocyanate-phenol-chloroform extraction method (Chomczynski P, Sacchi N; Anal Biochem 162:156-159,1987). The purified RNA was dissolved in sterile water, quantified spectrophotometrically and its concentration adjusted to 1 μg/μl. […]
(§3) Quantitative Real Time RT-PCR: Transforming growth factor-β1 (TGF-β1) and platelet-derived growth factor (PDGF) gene expression was quantified by real-time RT-PCR using sequence specific primers as previously reported by our group (Ahola H, et col.; American Journal of Pathology 155:907-913,1999). […] Both probes included a fluorescence reporter (6-carboxyfluorescein [FAM]) at the 5′-end and a fluorescent quencher (6-carboxytetramethylrhodamine [TAMRA]) at the 3′-end. For the relative quantification of the target gene and the endogenous reference 18S ribosomal RNA (18S), real-time quantitative RT-PCR was performed using an GeneAmp 5700 Sequence Detector (PE Biosystems, Foster City, Calif.) according to the manufacturer's instructions. […]

[2] = test system: platelet-derived growth factor (PDGF); assay: Quantitative real-time RT-PCR of mesenteric vessel PDGF gene expression; format: in vivo, Sprague Dawley rats; details: mesenteric vessel mRNA, angiotensin II infused animals
Description: as §1, §2, §3

[3] = test system: angiotensin II-infused rats; assay: Angiotensin II infusion in rats: systolic blood pressure and mesenteric vessel weight; details: 60 mg/kg daily gavage, 12 days
[4] = trichrome stained sections, 60 mg/kg daily

Cc1ccc(NC(=O)c2ccc(CN3CCN(C)CC3)cc2)cc1Nc1nccc(-c2cccnc2)n1 [Imatinib, N-{5-[4-(4-methyl-piperazino-methyl)-benzoylamido]-2-methylphenyl}-4-(3-pyridyl)-2-pyrimidine-amine]
media wall:lumen ratio (mesenteric vessels; 60 mg/kg daily gavage, 12 days, p<0.001): 0.4
extent of ECM expansion (mesenteric vessels; [4]): significantly reduced
media hypertrophy (mesenteric vessels; [4]): significantly reduced
TGF-β expression [1]: further increase
PDGF gene expression [2]: unaffected
systolic blood pressure ([3]; angiotensin II (58 ng/min) infused rats, tail-cuff, mean±SE, stated as no effect): 205±10 mmHg
mesenteric weight ([3]; animals receiving angiotensin II, p<0.001, significantly reduced): 42 mg
